Assay results reported in ChEMBL document CHEMBL4715711, “Development of cyanopyridine-triazine hybrids as lead multitarget anti-Alzheimer agents” (Bioorg Med Chem, 2016).
Calls of active or inactive are those of the source. No cut-off for these calls is given here.

What was measured:
[1] = biological target: Acetylcholinesterase (Electrophorus electricus, UniProt O42275); assay: Inhibition of electric eel AchE using acetylthiocholine iodide as substrate incubated for 5 mins followed by substrate addition and measured after 2 mins by Ellman's method
[2] = biological target: Cholinesterase (Equus caballus, UniProt P81908); assay: Inhibition of equine serum BuChE using butyrylthiocholine iodide as substrate incubated for 5 mins followed by substrate addition and measured after 2 mins by Ellman's method; format: cell-free
[3] = species: Homo sapiens; assay: Inhibition of amyloid beta (1 to 42 ) (unknown origin) self aggregation at 25 uM after 48 hrs by thioflavin-T fluorescence method relative to control
[4] = species: Homo sapiens; assay: Inhibition of amyloid beta (1 to 42 ) (unknown origin) self aggregation at 25 uM after 48 hrs by TEM analysis
[5] = test system: SH-SY5Y; assay: Inhibition of H2O2-induced ROS accumulation in human SH-SY5Y cells at 10 to 20 uM incubated for 24 hrs by […] probe based fluorescence assay; format: functional, cell-based; conditions: dose 10-20 µM
[6] = test system: SH-SY5Y; assay: Cytotoxicity against human SH-SY5Y cells assessed as reduction in cell viability at 50 uM incubated for 48 hrs by MTT assay; format: cell-based
[7] = test system: SH-SY5Y; assay: Neuroprotective activity against amyloid beta (1 to 42)-induced shrink on cell body in human SH-SY5Y cells at 20 uM incubated for 24 hrs in presence of amyloid beta (1 to 42) by phase-contrast microscopic analysis; format: functional, cell-based
[8] = test system: SH-SY5Y; assay: Cytotoxicity against human SH-SY5Y cells assessed as reduction in cell viability at 75 uM incubated for 48 hrs by MTT assay; format: cell-based
[9] = biological target: Acetylcholinesterase (Electrophorus electricus) (UniProt O42275); assay: Mixed inhibition of electric eel AchE using acetylthiocholine iodide as substrate incubated for 5 mins followed by substrate addition and measured after 2 mins by Ellman's method based Lineweaver-Burk plot analysis; conditions: time 7.0 min
[10] = test system: SH-SY5Y; assay: Cytotoxicity against human SH-SY5Y cells assessed as reduction in cell viability at 100 uM incubated for 48 hrs by MTT assay; format: cell-based
[11] = test system: SH-SY5Y; assay: Cytotoxicity against human SH-SY5Y cells assessed as reduction in cell viability at 25 uM incubated for 48 hrs by MTT assay; format: cell-based
[12] = test system: SH-SY5Y; assay: Neuroprotective activity against amyloid beta (1 to 42)-induced cell fragmentation in human SH-SY5Y cells at 20 uM incubated for 24 hrs in presence of amyloid beta (1 to 42) by phase-contrast microscopic analysis; format: functional, cell-based
[13] = test system: SH-SY5Y; assay: Inhibition of H2O2-induced morphological changes in human SH-SY5Y cells at 20 uM incubated for 24 hrs by microscopic analysis; format: functional, cell-based
[14] = test system: SH-SY5Y; assay: Neuroprotective activity against amyloid beta (1 to 42)-induced neurotoxicity in human SH-SY5Y cells at 5 to 20 uM incubated for 48 hrs in presence of amyloid beta (1 to 42) by MTT assay; format: functional, cell-based; conditions: dose 5-20 µM
[15] = test system: SH-SY5Y; assay: Cytotoxicity against human SH-SY5Y cells assessed as reduction in cell viability at 5 uM incubated for 48 hrs by MTT assay; format: cell-based
[16] = test system: SH-SY5Y; assay: Neuroprotective activity against amyloid beta (1 to 42)-induced loss of adherence in human SH-SY5Y cells at 20 uM incubated for 24 hrs in presence of amyloid beta (1 to 42) by phase-contrast microscopic analysis; format: functional, cell-based
[17] = test system: SH-SY5Y; assay: Neuroprotective activity against amyloid beta (1 to 42)-induced cell floating in human SH-SY5Y cells at 20 uM incubated for 24 hrs in presence of amyloid beta (1 to 42) by phase-contrast microscopic analysis; format: functional, cell-based
[18] = test system: SH-SY5Y; assay: Cytotoxicity against human SH-SY5Y cells assessed as reduction in cell viability at 1 uM incubated for 48 hrs by MTT assay; format: cell-based
[19] = test system: SH-SY5Y; assay: Neuroprotective activity against amyloid beta (1 to 42)-induced fade synapses in human SH-SY5Y cells at 20 uM incubated for 24 hrs in presence of amyloid beta (1 to 42) by phase-contrast microscopic analysis; format: functional, cell-based
[20] = test system: SH-SY5Y; assay: Cytotoxicity against human SH-SY5Y cells assessed as reduction in cell viability at 10 uM incubated for 48 hrs by MTT assay; format: cell-based
[21] = test system: SH-SY5Y; assay: Inhibition of H2O2-induced cell death in human SH-SY5Y cells at 20 uM incubated for 24 hrs by microscopic analysis; format: functional, cell-based

Sequence of Acetylcholinesterase (O42275 whole entry): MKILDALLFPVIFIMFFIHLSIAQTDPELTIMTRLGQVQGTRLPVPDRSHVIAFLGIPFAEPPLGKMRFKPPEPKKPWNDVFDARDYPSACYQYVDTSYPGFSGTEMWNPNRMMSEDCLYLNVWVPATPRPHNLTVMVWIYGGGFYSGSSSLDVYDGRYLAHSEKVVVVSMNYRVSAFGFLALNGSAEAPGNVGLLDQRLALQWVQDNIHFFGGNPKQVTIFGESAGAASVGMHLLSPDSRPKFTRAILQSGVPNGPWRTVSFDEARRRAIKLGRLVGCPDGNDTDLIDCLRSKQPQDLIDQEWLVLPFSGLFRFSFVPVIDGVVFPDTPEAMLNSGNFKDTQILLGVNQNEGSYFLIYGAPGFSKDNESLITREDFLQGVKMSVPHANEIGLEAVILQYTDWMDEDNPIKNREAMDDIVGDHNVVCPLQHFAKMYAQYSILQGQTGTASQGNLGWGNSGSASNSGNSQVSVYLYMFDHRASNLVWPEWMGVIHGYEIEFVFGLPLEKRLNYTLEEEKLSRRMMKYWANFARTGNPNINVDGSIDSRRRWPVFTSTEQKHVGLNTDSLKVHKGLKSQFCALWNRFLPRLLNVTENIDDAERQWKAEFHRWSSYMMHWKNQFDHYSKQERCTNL
Sequence of Cholinesterase (P81908 whole entry): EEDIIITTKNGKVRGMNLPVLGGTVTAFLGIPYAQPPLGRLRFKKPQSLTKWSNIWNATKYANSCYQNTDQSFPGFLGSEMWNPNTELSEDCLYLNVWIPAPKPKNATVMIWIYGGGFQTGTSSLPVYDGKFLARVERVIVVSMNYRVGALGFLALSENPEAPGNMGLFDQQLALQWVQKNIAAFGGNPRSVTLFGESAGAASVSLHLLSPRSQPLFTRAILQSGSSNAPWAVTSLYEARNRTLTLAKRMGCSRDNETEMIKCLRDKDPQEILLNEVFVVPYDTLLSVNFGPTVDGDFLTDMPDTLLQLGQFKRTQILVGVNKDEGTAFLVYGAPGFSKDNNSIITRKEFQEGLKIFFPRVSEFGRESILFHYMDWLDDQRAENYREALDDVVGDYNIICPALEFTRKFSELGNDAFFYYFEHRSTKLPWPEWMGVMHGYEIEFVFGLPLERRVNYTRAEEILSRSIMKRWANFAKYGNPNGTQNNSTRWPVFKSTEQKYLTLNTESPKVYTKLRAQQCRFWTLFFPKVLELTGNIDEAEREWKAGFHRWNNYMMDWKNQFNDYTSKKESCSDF
Sequence of Acetylcholinesterase (Electrophorus electricus) (O42275 24-633 limits assumed): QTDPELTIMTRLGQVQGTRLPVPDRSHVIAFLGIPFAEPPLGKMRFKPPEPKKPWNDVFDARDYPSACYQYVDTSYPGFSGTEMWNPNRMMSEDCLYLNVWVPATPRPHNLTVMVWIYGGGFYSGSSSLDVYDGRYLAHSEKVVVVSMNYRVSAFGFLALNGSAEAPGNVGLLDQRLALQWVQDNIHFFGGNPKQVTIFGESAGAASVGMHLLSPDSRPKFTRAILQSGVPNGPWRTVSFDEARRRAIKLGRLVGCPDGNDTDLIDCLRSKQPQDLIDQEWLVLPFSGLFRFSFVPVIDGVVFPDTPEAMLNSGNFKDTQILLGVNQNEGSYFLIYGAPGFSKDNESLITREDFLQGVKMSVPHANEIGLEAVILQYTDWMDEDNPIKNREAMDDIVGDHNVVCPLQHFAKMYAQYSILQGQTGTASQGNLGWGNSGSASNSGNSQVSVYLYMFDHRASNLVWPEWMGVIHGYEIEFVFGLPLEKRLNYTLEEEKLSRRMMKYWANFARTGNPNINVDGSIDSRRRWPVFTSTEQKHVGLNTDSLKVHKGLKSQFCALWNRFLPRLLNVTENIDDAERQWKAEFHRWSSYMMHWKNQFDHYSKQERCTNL

N#Cc1cccnc1N1CCN(c2nc(Nc3cccc(C(F)(F)F)c3)nc(Nc3ccc(F)cc3F)n2)CC1 gave an IC50 [1] of 72 nM, an IC50 [2] of 2850 nM and an inhibition [3] of 81.2%.

COc1cc(/C=C/C(=O)CC(=O)/C=C/c2ccc(O)c(OC)c2)ccc1O was tested, and the inhibition [4] was “Active” and the inhibition [3] was 55.3%.

In the case of N#Cc1cccnc1N1CCN(c2nc(Nc3cccc(C(F)(F)F)c3)nc(Nc3ccc(F)c(Cl)c3)n2)CC1, the IC50 [1] is reported as 59 nM, the inhibition [5] is reported as “Active” and the inhibition [4] is reported as “Active”. For the same compound, the Activity [6] was 88.6%, the Activity [7] was “Active” and the Activity [8] was 84.3%. For the same compound, the inhibition [9] was “Active”, the Activity [10] was 80.3% and the Activity [11] was 92.8%. The Activity [12] was “Active”, the IC50 [2] was 3600 nM and the inhibition [3] was 83.7%. The inhibition [13] was “Active”, the Activity [14] was “Active” and the Activity [15] was 95.4%. The Activity [16] was “Active”, the Activity [17] was “Active” and the Activity [18] was 97.1%. The Activity [19] was “Active”, the Activity [20] was 95.7% and the inhibition [21] was “Active”.

N#Cc1cccnc1N1CCN(c2nc(Nc3cccc(C(F)(F)F)c3)nc(NC3CC3)n2)CC1 gave an IC50 [1] of 528 nM, an IC50 [2] of 5250 nM and an inhibition [3] of 60.7%.

COc1ccc(Nc2nc(Nc3ccccc3F)nc(N3CCN(c4ncccc4C#N)CC3)n2)cc1 showed an IC50 [1] of 1410 nM, an IC50 [2] of 4130 nM and an inhibition [3] of 68.5%.

In the case of Cc1ccc(Nc2nc(Nc3ccc(F)c(Cl)c3)nc(N3CCN(c4ncccc4C#N)CC3)n2)cc1, the IC50 [1] is reported as 1700 nM, the IC50 [2] is reported as 5360 nM and the inhibition [3] is reported as 63.5%.

COc1ccc(Nc2nc(Nc3cccc(C(F)(F)F)c3)nc(N3CCN(c4ncccc4C#N)CC3)n2)cc1 was tested, and the IC50 [1] was 80 nM, the inhibition [5] was “Active” and the inhibition [4] was “Active”. For the same compound, the Activity [6] was 89.6%, the Activity [7] was “Active” and the Activity [8] was 86.3%. For the same compound, the Activity [10] was 83.3%, the Activity [11] was 93.8% and the Activity [12] was “Active”. For the same compound, the IC50 [2] was 2020 nM, the inhibition [3] was 82.4% and the inhibition [13] was “Active”. The Activity [14] was “Dose-dependent effect”, the Activity [15] was 96.4% and the Activity [16] was “Active”. The Activity [17] was “Active”, the Activity [18] was 98.1% and the Activity [19] was “Active”. The Activity [20] was 94.7% and the inhibition [21] was “Active”.

N#Cc1cccnc1N1CCN(c2nc(Nc3ccc(F)cc3)nc(Nc3cccc(C(F)(F)F)c3)n2)CC1 was tested, and the IC50 [1] was 84 nM, the IC50 [2] was 4890 nM and the inhibition [3] was 80.4%.

For Cc1ccc(Nc2nc(Nc3cccc(C(F)(F)F)c3)nc(N3CCN(c4ncccc4C#N)CC3)n2)cc1, the IC50 [1] was 153 nM, the IC50 [2] was 2210 nM and the inhibition [3] was 70.5%.
